Results on 2 compounds are retold here after US8299061B2, “Inhibitors of diacylglycerol acyltransferase” (Eli Lilly and Company, priority 2009, dated 2012).

Each structure is given as a SMILES string. Several values for one entry are separate records, joined by “and”; a condition that tells them apart may be missing. Equal entries are not always repeated. Where two headings read alike, the source gives them in different places.

The subject of assay [1] is Male Sprague-Dawley rats. Kind of assay: Oil bolus absorption model (plasma triglyceride after olive oil bolus). Type of assay: in vivo, rat. The conditions noted are these: for ED80: dose reducing increase in plasma triglyceride by 80%. Here is the method: Male Sprague-Dawley rats (280-320 g, n=6 per test group) on regular chow are acclimated to the test vivarium for at least 1 week prior to compound evaluation. Prior to compound testing, rats are fasted for 16 hour. Compounds are administered via oral gavage in a vehicle of 10% ethanol/90% corn oil at a volume of 1 ml/kg. Four hours after compound administration, a 0.5 ml blood sample is collected via the tail vein. Immediately following the 4 hour blood collection, a 3.0 ml bolus of olive oil is administered by oral gavage. A final blood sample is collected from the tail vein 6 hours after compound administration. Plasma is prepared from blood samples by centrifugation and analyzed for both triglyceride content, using a Hitachi 912 clinical chemistry analyzer, and test compound levels. The effective dose that reduces the increase in plasma triglyceride by 50% (ED50) and 80% (ED80) is determined DGAT-1 inhibition is indicative of the ability of the test compound to inhibit the increase in plasma triglyceride that occurs between hours 4 and 6 of the study (between 14 and 16 hours in the modified model) in vehicle treated (control) animals. In a modification of the model, compound is administered 14 hours prior to the first blood sample collection and oil bolus administration. The final blood sample is collected at 16 hours after dosing. In this longer duration version of the model, the 10% ethanol/90% corn oil vehicle is administered, without compound, at 10 hours after compound dosing to be consistent with the shorter duration version of the model. Compounds are tested substantially by the oil bolus absorption rat model method described herein.
For the compound N-[1-[[(4R)-5,6-dihydro-4H-imidazo[1,2-a][1]benzazepin-4-yl]carbamoyl]cyclopropyl]-4-ethoxy-benzamide (Examples 1, 3, 57), the three experiments used doses of 1, 3, 10 and 30 mg/kg. For the compound 4-Chloro-N-[1-[[(4R)-5,6-dihydro-4H-imidazo[1,2-a][1]benzazepin-4-yl]carbamoyl]cyclopropyl]benzamide (Examples 2, 21, 58), experiment 1 used doses of 0.3, 1, 3, 10 and 30 mg/kg, and for experiments 2 and 3, the doses used are 0.1, 0.3, 1, 3 and 10 mg/kg.
The data are analyzed using meta-analysis. The overall ED50 (ED80) is estimated as the weighted average of ED50 (ED80) from individual studies, with the weights being the inverse of variance of ED50 (ED80) estimates. The homogeneity Q-test is performed. If the test is significant at 0.10 level, a mixed-effect model is used to include both inter-study and intra-study variability. The weights are adjusted to the inverse of the sum of inter-study variance and the intra-study variance of ED50 (ED80) from individual studies. The inter-study variance is estimated by the Paule-Mandel estimator. (References: Sutton, A. J., Jones, D. R., Abrams, K. R., Sheldon, T. A., and Song, F., Methods for Meta-analysis in Medical Research London, John Wiley, ISBN 0-471-49066-0 (2000). Dersimonian R., and Kacker, R., Random-effects model for meta-analysis of clinical trials: An update, Contemporary Clinical Trials 28 p 105-114 (2007).

Assay [2] deals with mouse 3T3-L1 adipocytes. Kind of assay: Adipocyte triglyceride synthesis assay. Type of assay: cell-based. The conditions noted are these: inhibition of triglyceride synthesis, 14C acetate, 4 hours, geometric mean±standard error. The protocol:
Adipocyte Triglyceride Synthesis Assay: This assay measures the ability of compounds to inhibit triglyceride synthesis in intact mouse 3T3-L1 adipocytes. Undifferentiated 3T3-L1 cells are cultured in 96 well plates at a density of 25,000 cells per well using standard tissue culture conditions. After two days in culture, the cells are differentiated to adipocytes by placing them in media supplemented with 0.5 mM 1-methyl-3-isobutylxanthine (IBMX), 10 μg/mL insulin and 1 μM dexamethasone. After five days in culture, cells are grown in media supplemented only with 10 μg/mL insulin. Assays are performed after cells have been in culture 12 days. To begin the assay, culture media is removed from the cells and replaced with 50 μl OptiMEM® media containing 0.375 μCi/well ^14C acetate. Cells are then incubated at 37° C. in 7.5% CO2 for 4 hours. At the end of this incubation, media is removed, cells are washed once with Hank's balanced salts, and 25 μl of 0.7% Triton® X-100 is added to each well and allowed to extract the cells for 5 minutes. At the end of this period, 75 μl of a solution containing 58.8% isopropanol, 14.7% n-heptane, 11.5% water, 12.5% ethanol, and 2.5% 1N sodium hydroxide is added to each well and plates are shaken on an orbital shaker for 2 minutes. 100 μl of heptane is then added and plates are shaken for another 2 minutes. […]

Take `CCOc1ccc(C(=O)NC2(C(=O)N[C@@H]3CCc4ccccc4-n4ccnc43)CC2)cc1` [Example 1, N-[1-[[(4R)-5,6-dihydro-4H-imidazo[1,2-a][1]benzazepin-4-yl]carbamoyl]cyclopropyl]-4-ethoxy-benzamide]: the ED50 (in general, the midpoint of the dose-response relation) in assay [1] (16 hour oil bolus study, rat, oral gavage, dose reducing increase in plasma triglyceride by 50%, individual experiments) is 1.71 mg/kg and 12.37 mg/kg and 2.92 mg/kg; in assay [1] (Rattus norvegicus, 16 h, 16 hour oil bolus study, weighted average of three experiments, read-out: ED50 Mean (meta-analysis)), 5.3 mg/kg. Besides, the ED80 in assay [1] (16 hour oil bolus study, rat, oral gavage, individual experiments) is 5.52 mg/kg and 19.61 mg/kg and 7.64 mg/kg. Besides, the “ED80 Mean (meta-analysis)” value in assay [1] (16 hour oil bolus study, weighted average of three experiments) is recorded as 7.34 mg/kg. Moreover, in assay [2], the EC50 (usually the midpoint of the concentration-response curve) came to 0.175 µM.
`O=C(NC1(C(=O)N[C@@H]2CCc3ccccc3-n3ccnc32)CC1)c1ccc(Cl)cc1` [Example 2, 4-Chloro-N-[1-[[(4R)-5,6-dihydro-4H-imidazo[1,2-a][1]benzazepin-4-yl]carbamoyl]cyclopropyl]benzamide]: the ED50 in assay [1] (6 hour oil bolus study, rat, oral gavage, dose reducing increase in plasma triglyceride by 50%, individual experiments) is 0.26 mg/kg and 0.73 mg/kg and 0.57 mg/kg; in assay [1] (Rattus norvegicus, 6 h, 6 hour oil bolus study, weighted average of experiments, read-out: ED50 Mean (meta-analysis)), 0.32 mg/kg. Further, in assay [1] (6 hour oil bolus study, rat, oral gavage, individual experiments), the ED80 was 0.45 mg/kg and 2.22 mg/kg. Further, the “ED80 Mean (meta-analysis)” value in assay [1] (6 hour oil bolus study, weighted average of experiments) is given as 0.54 mg/kg. In assay [2], the EC50 amounted to 0.213 µM.
